Data from PubChem BioAssay (NCI).
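1) Cells in 96-well plates. 2) Compound, 48 h, 5 concentrations. 3) Linear interpolation between surrounding doses. 4) Unreached endpoint = highest concentration. GI50 is the concentration that inhibits growth by half. TGI is the concentration that stops growth completely.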

Columns and labels:
Assay in all cases: NCI anticancer screen, dose series, 48 h
[1] = tested on: NCI-H23 lung
[2] = tested on: RPMI-8226 leukemia
[3] = tested on: SF-268 CNS
[4] = tested on: SK-MEL-28 melanoma
[5] = tested on: COLO 205 colon
[6] = tested on: A549 NSCLC
[7] = tested on: MDA-MB-435
[8] = tested on: TK-10 renal
[9] = tested on: OVCAR-5 ovarian
[10] = tested on: 786-0 renal
[11] = tested on: CAKI-1 renal
[12] = tested on: SF-295 CNS

| Compound | TGI [1] | TGI [2] | TGI [3] | TGI [4] | TGI [5] | TGI [6] | TGI [7] | TGI [8] | TGI [9] | TGI [10] | TGI [11] | TGI [12] | GI50 [1] | GI50 [6] | GI50 [2] | GI50 [5] | GI50 [9] | GI50 [11] | GI50 [12] |
| --- | --- | --- | --- | --- | --- | --- | --- | --- | --- | --- | --- | --- | --- | --- | --- | --- | --- | --- | --- |
| C=C1C(=O)OC2/C=C(\CO)C3OC3C3OC3(C)CC(OC(=O)/C(=C/C)COC(C)=O)C12 (stereo unspecified) | 21.7 µM | > 100 µM | 27.1 µM | 3.72 µM | 3.06 µM | 36.9 µM | 7.88 µM | 11.1 µM | 28.7 µM | 5.36 µM | 4.67 µM | 46.7 µM | – | – | – | – | – | – | – |
| COc1ccc(C(=O)c2[nH]c(Nc3cc(C)ccn3)c(C(=S)Nc3ccccc3)c2N)cc1 | 72.6 µM | 37.3 µM | 68.2 µM | 34 µM | 41.5 µM | > 100 µM | 59.6 µM | 61.5 µM | 74.1 µM | 49.7 µM | > 100 µM | 49.5 µM | – | – | – | – | – | – | – |
| Cc1c2cnccc2c(C)c2c1c1ccccc1n2CCCCCCCl | > 50 µM | > 48.9 µM | > 50 µM | > 50 µM | > 34.1 µM | > 50 µM | – | – | > 50 µM | – | > 50 µM | > 50 µM | – | – | – | – | – | – | – |
| Nc1nc2cc(COc3ccc(C(=O)O)cc3)ccc2nc1-c1ccccc1 | > 10 µM | > 10 µM | > 10 µM | > 10 µM | > 10 µM | > 10 µM | > 10 µM | > 10 µM | > 10 µM | – | > 10 µM | > 10 µM | – | – | – | – | – | – | – |
| Cc1ccc(C(=O)c2[nH]c(NCc3ccccc3)c(C(=S)Nc3ccccc3)c2N)cc1 | 27.1 µM | 5 µM | 28.8 µM | 9.97 µM | 18 µM | 22.1 µM | 10.2 µM | 23.3 µM | 27 µM | 18.7 µM | 27.5 µM | 17.2 µM | – | – | – | – | – | – | – |
| Nc1nc(N)c2ncn(Cc3ccccc3CO)c2n1 | > 100 µM | > 100 µM | > 100 µM | > 100 µM | > 100 µM | > 100 µM | > 100 µM | > 100 µM | > 100 µM | > 100 µM | > 100 µM | > 100 µM | – | – | – | – | – | – | – |
| O=C1Sc2sc(=S)sc2SC1c1ccccc1 (stereo unspecified) | > 100 µM | > 100 µM | > 100 µM | > 64.8 µM | > 63.6 µM | > 100 µM | – | – | > 100 µM | – | > 100 µM | > 100 µM | – | – | – | – | – | – | – |
| COc1cnc2oc3ccc(O)cc3c2c1-c1ccccc1 | > 100 µM | > 100 µM | > 100 µM | > 100 µM | > 100 µM | > 100 µM | > 100 µM | > 100 µM | 68.2 µM | > 100 µM | > 100 µM | > 100 µM | – | – | – | – | – | – | – |
| O=C(c1ccsc1)c1nccc2c1cnc1ccccc12 | > 100 µM | > 100 µM | > 100 µM | > 100 µM | > 100 µM | > 100 µM | > 100 µM | > 100 µM | > 100 µM | > 100 µM | > 100 µM | > 100 µM | – | – | – | – | – | – | – |
| COc1ccc(C)cc1NC(=S)N/N=C/c1ccco1 | > 100 µM | 71.8 µM | > 100 µM | > 100 µM | 65.5 µM | > 100 µM | 92.2 µM | – | > 100 µM | > 100 µM | > 100 µM | > 100 µM | – | – | – | – | – | – | – |
| O=c1c2cc([N+](=O)[O-])ccc2[nH]n1Cc1ccccc1Cl | > 100 µM | 95.2 µM | > 100 µM | > 100 µM | > 100 µM | > 100 µM | > 100 µM | 99.9 µM | > 100 µM | > 100 µM | > 100 µM | > 100 µM | – | – | – | – | – | – | – |
| O=C(N/N=C/c1cc(Cl)cc(Cl)c1[O-])c1ccccc1O.O=C(N/N=C/c1cc(Cl)cc(Cl)c1[O-])c1ccccc1O.[Mn+2] | 6.31 µM | – | 11.5 µM | 12.1 µM | – | 11.6 µM | – | 16.2 µM | 17.4 µM | – | 4.33 µM | 11.8 µM | 0.301 µM | 0.377 µM | – | – | – | – | – |
| O=C(O)C(C1NCCS1)N1C(=O)c2ccccc2C1=O (stereo unspecified) | > 100 µM | > 100 µM | > 100 µM | > 100 µM | > 100 µM | > 100 µM | > 100 µM | > 100 µM | > 100 µM | > 100 µM | > 100 µM | > 100 µM | – | – | – | – | – | – | – |
| COc1cccc(/C=N/[N+](C)(C)C)c1O | > 10 µM | > 10 µM | > 10 µM | > 10 µM | > 10 µM | > 10 µM | > 10 µM | > 10 µM | > 10 µM | > 10 µM | > 10 µM | > 10 µM | – | – | – | – | – | – | – |
| Cc1ccnn1CCc1ccc(Cl)cc1Cl | > 100 µM | 38.2 µM | > 100 µM | > 100 µM | > 100 µM | > 100 µM | > 100 µM | 48.1 µM | > 100 µM | – | > 100 µM | 52.9 µM | – | – | – | – | – | – | – |
| COc1ccc2[nH]c(=O)cc(C)c2c1[N+](=O)[O-] | > 100 µM | > 100 µM | > 100 µM | > 100 µM | > 100 µM | > 100 µM | – | > 100 µM | > 100 µM | > 100 µM | > 100 µM | > 100 µM | – | – | – | – | – | – | – |
| COc1cc2c(/C=C3/C(=O)Nc4cc(C)c(O)cc43)c(Cl)[nH]c2cc1C | 5.87 µM | 4.44 µM | 31.9 µM | 18.9 µM | 4.62 µM | 20.2 µM | 1.22 µM | 7.22 µM | 15.6 µM | 8.91 µM | 7.01 µM | 5.07 µM | – | – | – | – | – | – | – |
| CC(C)(C(=O)N(C(=O)N1CCN(c2ccccc2)CC1)S(=O)(=O)c1ccccc1)c1ccc(Cl)cc1 | > 100 µM | > 100 µM | > 100 µM | > 100 µM | 42.7 µM | > 100 µM | > 100 µM | > 100 µM | > 100 µM | > 100 µM | > 100 µM | > 100 µM | – | – | – | – | – | – | – |
| CCOC(=O)C1=C(C)N(Cc2ccccc2)C2(O)C=CC(=O)C3C(=O)N(c4ccccc4)C(=O)C132 (stereo unspecified) | 5.36 µM | 3.1 µM | 7.81 µM | 3.54 µM | 3.1 µM | 10.4 µM | 3.86 µM | 9.33 µM | 9.85 µM | 3.27 µM | 4.17 µM | 13.7 µM | – | – | – | – | – | – | – |
| C=C1C(=O)OC2/C=C(CO)/C=C\C3OC3(C)CC(OC(=O)/C(C)=C/COC(C)=O)C12 (stereo unspecified) | 8.53 µM | 4.33 µM | 15.4 µM | 3.26 µM | 2.99 µM | 28.5 µM | 4.32 µM | 14 µM | 26.9 µM | 4.36 µM | 10.9 µM | 28.3 µM | – | – | – | – | – | – | – |
| C=CCn1c(C)nc2cc(Nc3nc(N4CCCC4)nc4nc[nH]c34)ccc21 | > 100 µM | > 100 µM | – | – | > 100 µM | – | – | – | > 100 µM | – | > 100 µM | > 100 µM | > 100 µM | – | > 100 µM | 3.16 µM | > 100 µM | > 100 µM | > 100 µM |
| CS(C)(=O)=Nn1c(=O)n2n(c1=O)[C@H]1CC[C@@H]2C1 | > 100 µM | > 100 µM | > 100 µM | > 100 µM | > 100 µM | > 100 µM | > 100 µM | > 100 µM | > 100 µM | – | > 100 µM | > 100 µM | – | – | – | – | – | – | – |
| O=C1C=CC2(C=C1)O[C@H](CCc1ccccc1)[C@@H](CCc1ccccc1)O2 | > 100 µM | > 100 µM | > 100 µM | > 100 µM | > 100 µM | > 100 µM | 76.1 µM | > 100 µM | > 100 µM | > 100 µM | > 100 µM | > 100 µM | – | – | – | – | – | – | – |
| CSc1nc2c(ncn2C2OC(CO)C(O)C(O)C2O)c(=O)n1C (stereo unspecified) | > 100 µM | > 100 µM | > 100 µM | > 100 µM | > 100 µM | > 100 µM | – | – | > 100 µM | – | – | > 100 µM | – | – | – | – | – | – | – |
